Laboratory results taken from the supplement of paper PMC11061612.

Columns and labels:
Experiment in all cases: combination Emax (second highest fraction inhibited in the dose matrix, 72 h); higher = more inhibition; extreme values may be limits of the assay
[1] = system: SJRH30 (Rhabdomyosarcoma)
Outline: (§1)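 Cell lines in DMEM/F12 or RPMI with 10% FBS were plated in 1536-well plates, held 24 hours at 37°C, 5% CO2, then given two-drug dose matrices for 72 hours (DMSO typically 0.2%). Viability was read by CellTiter-Glo 2.0 luminescence and scaled as inhibition from 0 (vehicle wells) to 1 (blank wells). Combination Emax is the second-highest inhibition in the matrix; Bliss excess is observed combination effect minus expected EA + EB − EA·EB, EA and EB being single-agent effects.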

[2] = system: AsPC-1 (Pancreatic Carcinoma)
Outline: as §1

[3] = system: PANC-02-03 (Pancreatic Carcinoma)
Outline: as §1

[4] = system: KYSE-70 (Esophageal Squamous Cell Carcinoma)
Outline: as §1

[5] = system: RERF-LC-KJ (Lung Adenocarcinoma)
Outline: as §1

[6] = system: COLO-684 (Endometrial Carcinoma)
Outline: as §1

HuO-3N1 (Osteosarcoma) = system: HuO-3N1 (Osteosarcoma)
Outline: as §1

[7] = system: OVTOKO (Ovarian Carcinoma)
Outline: as §1

[8] = system: SW684 (Other Solid Carcinomas)
Outline: as §1

[9] = system: Caov-3 (Ovarian Carcinoma)
Outline: as §1

[10] = system: HSC-3 (Oral Cavity Carcinoma)
Outline: as §1

[11] = system: RPMI-8866 (Chronic Myelogenous Leukemia)
Outline: as §1

[12] = system: NCI-H1623 (Lung Adenocarcinoma)
Outline: as §1

[13] = system: SNU-175 (Colorectal Carcinoma)
Outline: as §1

[14] = system: NCI-H1563 (Lung Adenocarcinoma)
Outline: as §1

[15] = system: SK-MM-2 (Plasma Cell Myeloma)
Outline: as §1

ES-2 (Ovarian Carcinoma) = system: ES-2 (Ovarian Carcinoma)
Outline: as §1

KYM-1 (Rhabdomyosarcoma) = system: KYM-1 (Rhabdomyosarcoma)
Outline: as §1

[16] = system: EB-3 (Burkitt's Lymphoma)
Outline: as §1

[17] = system: NCI-H810 (Non-Small Cell Lung Carcinoma)
Outline: as §1

Row | SMILES | combination Emax [1] | combination Emax [2] | combination Emax [3] | combination Emax [4] | combination Emax [5] | combination Emax [6] | combination Emax (HuO-3N1 (Osteosarcoma)) | combination Emax [7] | combination Emax [8] | combination Emax [9] | combination Emax [10] | combination Emax [11] | combination Emax [12] | combination Emax [13] | combination Emax [14] | combination Emax [15] | combination Emax (ES-2 (Ovarian Carcinoma)) | combination Emax (KYM-1 (Rhabdomyosarcoma)) | combination Emax [16] | combination Emax [17]
1 | CC(=O)Nc1cccc(-n2c(=O)n(C3CC3)c(=O)c3c(Nc4ccc(I)cc4F)n(C)c(=O)c(C)c32)c1 [Trametinib] + Cc1nc(-c2cn3c(n2)-c2ccc(-c4cnn(C(C)(C)C(N)=O)c4)cc2OCC3)n(C(C)C)n1 [Taselisib] (first compound max 1 µM, 7x7, partner max 10 µM) | 0.947 | 0.608 | 0.939 | 0.804 | 0.727 | 0.57 | 0.461 | 0.795 | 0.929 | 0.836 | 0.986 | 0.71 | 1 | 0.627 | 0.793 | 0.43 | 0.725 | 0.4 | 0.373 | 0.121
2 | CC1(C)CCC(CN2CCN(c3ccc(C(=O)NS(=O)(=O)c4ccc(NCC5CCOCC5)c([N+](=O)[O-])c4)c(Oc4cnc5[nH]ccc5c4)c3)CC2)=C(c2ccc(Cl)cc2)C1 [Venetoclax] + C1CN(CCC1(C(=O)N[C@@H](CCO)C2=CC=C(C=C2)Cl)N)C3=NC=NC4=C3C=CN4 [Capivasertib] (first compound max 1 µM, 7x7, partner max 3 µM) | 0.387 | 0.207 | 0.189 | 0.234 | 0.377 | 0.625 | 0.242 | 0.462 | 0.392 | 0.553 | 0.391 | 0.292 | 0.314 | 0.162 | 0.396 | 1 | 0.14 | 0.0721 | 0.176 | 0.113
3 | CC1(C)CCC(CN2CCN(c3ccc(C(=O)NS(=O)(=O)c4ccc(NCC5CCOCC5)c([N+](=O)[O-])c4)c(Oc4cnc5[nH]ccc5c4)c3)CC2)=C(c2ccc(Cl)cc2)C1 [Venetoclax] + C=CCn1c(=O)c2cnc(Nc3ccc(N4CCN(C)CC4)cc3)nc2n1-c1cccc(C(C)(C)O)n1 [AZD1775] (first compound max 1 µM, partner max 1 µM) | 0.9 | 0.282 | 0.494 | 0.604 | 0.283 | 0.732 | 0.386 | 0.529 | 0.604 | 0.801 | 0.492 | 0.951 | 0.577 | 0.553 | 0.371 | 1 | 0.644 | 0.314 | 0.674 | 0.781
4 | CC1(C)CCC(CN2CCN(c3ccc(C(=O)NS(=O)(=O)c4ccc(NCC5CCOCC5)c([N+](=O)[O-])c4)c(Oc4cnc5[nH]ccc5c4)c3)CC2)=C(c2ccc(Cl)cc2)C1 [Venetoclax] + CCN(CCO)CCCOc1ccc2c(Nc3cc(CC(=O)Nc4cccc(F)c4)[nH]n3)ncnc2c1 [AZD2811] (first compound max 1 µM, 7x7, partner max 1 µM) | 0.287 | 0.154 | 0.217 | 0.224 | 0.298 | 0.19 | 0.256 | 0.263 | 0.275 | 0.892 | 0.436 | 0.601 | 0.211 | 0.912 | 0.193 | 1 | 0.233 | 0.162 | 0.319 | 0.492
5 | CC1(C)CCC(CN2CCN(c3ccc(C(=O)NS(=O)(=O)c4ccc(NCC5CCOCC5)c([N+](=O)[O-])c4)c(Oc4cnc5[nH]ccc5c4)c3)CC2)=C(c2ccc(Cl)cc2)C1 [Venetoclax] + CN(C)CCCOc1ccc(-c2ccc3ncc4c(c3c2)n(C2CCOCC2)c(=O)n4C)cn1 [AZD0156] (first compound max 1 µM, 7x7, partner max 1 µM) | 0.177 | 0.193 | 0.194 | 0.104 | 0.278 | 0.211 | 0.262 | 0.385 | 0.284 | 0.59 | 0.233 | 0.0785 | 0.262 | 0.128 | 0.406 | 1 | 0.22 | 0.158 | 0.343 | 0.121
6 | CC1(C)CCC(CN2CCN(c3ccc(C(=O)NS(=O)(=O)c4ccc(NCC5CCOCC5)c([N+](=O)[O-])c4)c(Oc4cnc5[nH]ccc5c4)c3)CC2)=C(c2ccc(Cl)cc2)C1 [Venetoclax] + COc1cc(Nc2ncc3c(n2)-c2ccc(Cl)cc2C(c2c(F)cccc2OC)=NC3)ccc1C(=O)O [Alisertib] (first compound max 1 µM, 7x7, partner max 10 µM) | 0.423 | 0.136 | 0.292 | 0.392 | 0.48 | 0.264 | 0.372 | 0.484 | 0.253 | 0.838 | 0.61 | 0.89 | 0.391 | 0.818 | 0.466 | 1 | 0.983 | 0.21 | 0.418 | 0.53
7 | CC1(C)CCC(CN2CCN(c3ccc(C(=O)NS(=O)(=O)c4ccc(NCC5CCOCC5)c([N+](=O)[O-])c4)c(Oc4cnc5[nH]ccc5c4)c3)CC2)=C(c2ccc(Cl)cc2)C1 [Venetoclax] + C[C@@H]1COCCN1C2=NC(=NC(=C2)C3(CC3)[S@](=N)(=O)C)C4=C5C=CNC5=NC=C4 [AZD6738] (first compound max 1 µM, 7x7, partner max 10 µM) | 0.864 | 0.264 | 0.508 | 0.433 | 0.313 | 0.753 | 0.393 | 0.566 | 0.48 | 0.794 | 0.548 | 0.958 | 0.827 | 0.658 | 0.307 | 1 | 0.789 | 0.839 | 0.6 | 0.577
8 | CC1(C)CCC(CN2CCN(c3ccc(C(=O)NS(=O)(=O)c4ccc(NCC5CCOCC5)c([N+](=O)[O-])c4)c(Oc4cnc5[nH]ccc5c4)c3)CC2)=C(c2ccc(Cl)cc2)C1 [Venetoclax] + C[C@@H](Nc1cc(F)cc(F)c1)c1cc(C(=O)N(C)C)cc2c(=O)cc(N3CCOCC3)oc12 [AZD8186] (first compound max 1 µM, 7x7, partner max 3 µM) | 0.0499 | 0.104 | 0.147 | 0.0812 | 0.195 | 0.529 | 0.269 | 0.521 | 0.315 | 0.797 | 0.0933 | 0.594 | 0.378 | 0.171 | 0.431 | 1 | 0.159 | 0.162 | 0.198 | 0.0592
9 | CC1(C)CCC(CN2CCN(c3ccc(C(=O)NS(=O)(=O)c4ccc(NCC5CCOCC5)c([N+](=O)[O-])c4)c(Oc4cnc5[nH]ccc5c4)c3)CC2)=C(c2ccc(Cl)cc2)C1 [Venetoclax] + Cc1cc2ncnn2cc1Nc1ncc2c(n1)n(C1CCOCC1)c(=O)n2C [AZD7648] (first compound max 1 µM, 7x7, partner max 10 µM) | 0.187 | 0.246 | 0.208 | 0.169 | 0.357 | 0.349 | 0.228 | 0.381 | 0.273 | 0.528 | 0.207 | 0.316 | 0.371 | 0.131 | 0.391 | 1 | 0.249 | 0.159 | 0.477 | 0.221
10 | CC1(C)CCC(CN2CCN(c3ccc(C(=O)NS(=O)(=O)c4ccc(NCC5CCOCC5)c([N+](=O)[O-])c4)c(Oc4cnc5[nH]ccc5c4)c3)CC2)=C(c2ccc(Cl)cc2)C1 [Venetoclax] + Cn1cnc2c(F)c(Nc3ccc(Br)cc3Cl)c(C(=O)NOCCO)cc21 [Selumetinib] (first compound max 1 µM, 7x7, partner max 3 µM) | 0.1 | 0.403 | 0.367 | 0.19 | 0.185 | 0.0813 | 0.146 | 0.163 | 0.191 | 0.603 | 0.365 | 0.293 | 0.256 | 0.313 | 0.242 | 1 | 0.366 | 0.124 | 0.154 | 0.0631
